pIC50: −log10 of the molar value.
Target: T1, Tyrosine-protein kinase receptor UFO (Homo sapiens, UniProt P30530)
T1 sequence (P30530 whole entry): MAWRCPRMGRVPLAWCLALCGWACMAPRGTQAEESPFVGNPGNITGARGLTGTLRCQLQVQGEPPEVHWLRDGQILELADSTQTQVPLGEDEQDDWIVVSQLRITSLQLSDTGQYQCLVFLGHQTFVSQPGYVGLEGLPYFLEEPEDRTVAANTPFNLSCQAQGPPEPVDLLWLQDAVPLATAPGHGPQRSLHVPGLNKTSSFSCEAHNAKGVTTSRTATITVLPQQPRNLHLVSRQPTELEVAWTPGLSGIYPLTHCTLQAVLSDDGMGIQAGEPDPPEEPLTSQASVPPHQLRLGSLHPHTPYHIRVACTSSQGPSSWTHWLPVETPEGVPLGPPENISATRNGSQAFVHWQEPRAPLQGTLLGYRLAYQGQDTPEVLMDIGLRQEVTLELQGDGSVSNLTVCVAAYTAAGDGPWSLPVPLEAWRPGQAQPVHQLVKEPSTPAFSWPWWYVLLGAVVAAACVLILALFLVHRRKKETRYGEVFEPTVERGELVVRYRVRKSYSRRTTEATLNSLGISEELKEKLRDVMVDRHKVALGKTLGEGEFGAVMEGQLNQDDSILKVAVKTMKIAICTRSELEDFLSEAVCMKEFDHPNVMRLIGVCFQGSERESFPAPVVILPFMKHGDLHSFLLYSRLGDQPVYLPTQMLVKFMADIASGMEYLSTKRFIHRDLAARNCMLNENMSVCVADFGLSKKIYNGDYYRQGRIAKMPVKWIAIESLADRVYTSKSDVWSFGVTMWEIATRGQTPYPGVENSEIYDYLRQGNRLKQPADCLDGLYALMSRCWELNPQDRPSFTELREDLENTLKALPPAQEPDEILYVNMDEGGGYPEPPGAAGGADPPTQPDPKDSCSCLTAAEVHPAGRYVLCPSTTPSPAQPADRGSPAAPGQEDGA
Assay: Kinase Assay: The ability of compounds to inhibit the kinase activity of recombinant human baculovirus-expressed AXL was measured by homogeneous TRF (HTRF) using Cisbio's KinEASE assay system in white 384-well Optiplates. Assay buffer contained 1 mM DTT, 2 mM MnCl2, 2% DMSO, 50 nM supplement enzymatic buffer, and 1× enzymatic buffer. A 2× concentration of tyrosine kinase (TK) substrate-biotin/ATP mixture made in assay buffer was added to plates at 10 μL/well using the Multidrop Combi (Thermo Fisher Scientific, Waltham, Mass.). […] Compounds (100 nL), diluted in 100% DMSO on the Biomek FX, (Beckman Coulter, Inc., Brea, Calif.), were transferred to the assay plates using the Biomek FX pintool (2.5% final DMSO in assay). A 2× concentration (final=12 ng/mL) of GST-AXL (diluted in assay buffer) was added to plates at 10 uL/well using the Multidrop Combi. Plates were sealed, briefly shaken and incubated at 25° C. for 30 minutes. […] Plates were sealed, briefly shaken and incubated at 25° C. for 1 hour.

Structure (SMILES)	pIC50
C=CCn1cc(C(=O)Nc2ccc(Oc3ccnc4cc(OC)c(OC)cc34)c(F)c2)c(=O)n(CC=C)c1=O	> 8.00
CCn1cc(C(=O)Nc2ccc(Oc3ccnc4cc(OC)c(OC)cc34)c(Cl)c2)c(=O)n(-c2ccc(F)cc2)c1=O	> 8.00
CCn1nc(C(=O)Nc2ccc(Oc3ccnc4cc(OC)c(OC)cc34)cn2)c(=O)n(-c2ccc(F)cc2)c1=O	> 8.00

— ChEMBL document CHEMBL5726364, “Uracil derivatives as AXL and c-MET kinase inhibitors” (2017)
